The record followed here is patent publication US10759813B2, “Neprilysin inhibitors” (THERAVANCE BIOPHARMA R&D IP, LLC, priority 2010, dated 2020).

human neprilysin (EC 3.4.24.11; NEP), sequence (P08473 52-750): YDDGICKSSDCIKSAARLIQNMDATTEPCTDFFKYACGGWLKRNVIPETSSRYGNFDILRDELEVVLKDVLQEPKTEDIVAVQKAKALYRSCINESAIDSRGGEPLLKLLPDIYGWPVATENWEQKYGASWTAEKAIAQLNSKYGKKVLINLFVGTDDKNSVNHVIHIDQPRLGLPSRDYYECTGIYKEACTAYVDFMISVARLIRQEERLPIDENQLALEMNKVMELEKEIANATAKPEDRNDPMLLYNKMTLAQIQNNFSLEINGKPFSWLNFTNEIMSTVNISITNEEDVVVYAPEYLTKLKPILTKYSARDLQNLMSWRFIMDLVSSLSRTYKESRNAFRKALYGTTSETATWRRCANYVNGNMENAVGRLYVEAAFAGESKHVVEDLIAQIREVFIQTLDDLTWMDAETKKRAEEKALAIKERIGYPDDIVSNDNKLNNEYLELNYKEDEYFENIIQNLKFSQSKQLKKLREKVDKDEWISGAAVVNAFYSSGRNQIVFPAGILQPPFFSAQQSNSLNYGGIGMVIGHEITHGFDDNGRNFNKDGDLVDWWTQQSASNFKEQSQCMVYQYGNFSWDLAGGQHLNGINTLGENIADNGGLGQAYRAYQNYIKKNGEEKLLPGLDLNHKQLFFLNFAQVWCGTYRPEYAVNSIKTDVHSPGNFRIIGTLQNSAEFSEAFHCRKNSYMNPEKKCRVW

This assay has as its target human neprilysin (EC 3.4.24.11; NEP) (Homo sapiens (Human), UniProt P08473). Nature of the assay: In vitro enzyme inhibition assay at human NEP (fluorogenic peptide substrate). The class given is biochemical. The note with it: pKi values at human NEP, recombinant human NEP. A digest of the protocol:
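Recombinant human NEP preincubated 30 min at 37 °C with compound (10 μM down to pM), then 10 μM Mca-D-Arg-Arg-Leu-Dap-(Dnp)-OH in 50 mM HEPES pH 7.5, 100 mM NaCl, 0.01% Tween-20, 10 μM ZnSO4. Stopped after 20 min with acetic acid; fluorescence Ex320/Em405; Ki by nonlinear fit, reported as pKi.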
For `CC(=O)c1cc(C(=O)N[C@H](Cc2ccc(-c3ccccc3)cc2)C[C@@H](O)C(N)=O)[nH]n1` [Example 15-108, 5-Acetyl-2H-pyrazole-3-carboxylic acid ((1R,3R)-1-biphenyl-4-ylmethyl-3-carbamoyl-3-hydroxypropyl)amide], the Ki was 12.6 to 100 nM.

Turning to `C[C@H](O)c1cc(C(=O)N[C@H](Cc2ccc(-c3ccccc3)cc2)C[C@@H](O)C(=O)O)[nH]n1` [Example 15-109, (2R,4R)-5-Biphenyl-4-yl-2-hydroxy-4-{[5-((S)-1-hydroxyethyl)-2H-pyrazole-3-carbonyl]amino}pentanoic acid], the Ki was 1.26 to 10 nM.

In the case of `C[C@@H](O)c1cc(C(=O)N[C@H](Cc2ccc(-c3ccccc3)cc2)C[C@@H](O)C(=O)O)[nH]n1` [Example 15-110, (2R,4R)-5-Biphenyl-4-yl-2-hydroxy-4-{[5-((R)-1-hydroxyethyl)-2H-pyrazole-3-carbonyl]amino}pentanoic acid], the Ki was 1.26 to 10 nM.

`C/C(=N\O)c1cc(C(=O)N[C@H](Cc2ccc(-c3ccccc3)cc2)C[C@@H](O)C(=O)O)[nH]n1` [Example 15-111, (2R,4R)-5-Biphenyl-4-yl-2-hydroxy-4-[(5-{1-[(E)-hydroxyimino]-ethyl}-2H-pyrazole-3-carbonyl)-amino]-pentanoic acid]: the pKi is listed as not below 9.0.

`CCCCc1cc(C(=O)N[C@H](Cc2ccc(-c3ccccc3)cc2)C[C@@H](O)C(=O)O)[nH]n1` [Example 15-112, (2R,4R)-5-Biphenyl-4-yl-4-[(5-butyl-2H-pyrazole-3-carbonyl)-amino]-2-hydroxy-pentanoic acid]: the Ki was 1.26 to 10 nM.

As to `O=C(N[C@H](Cc1ccc(-c2ccccc2)cc1)CC(O)C(=O)O)c1cn[nH]c1` (stereo partly drawn) [Example 15-113, (R)-5-Biphenyl-4-yl-2-hydroxy-4-[(1H-pyrazole-4-carbonyl)amino]pentanoic acid], the Ki was 12.6 to 100 nM.

As for `O=C(N[C@H](Cc1ccc(-c2ccccc2)cc1)C[C@@H](O)C(=O)O)c1cc2n(n1)CCOc1ccccc1-2` [Example 16-1, (2R,4R)-5-Biphenyl-4-yl-4-[(4,5-dihydro-6-oxa-3,3a-diaza-benzo[e]azulene-2-carbonyl)-amino]-2-hydroxy-pentanoic acid], the pKi is on record as not below 9.0.

With `O=C(N[C@H](Cc1ccc(-c2ccccc2)cc1)C[C@@H](O)C(=O)O)c1cc2nn1CCOc1ccccc1-2` [Example 16-2, (2R,4R)-5-Biphenyl-4-yl-2-hydroxy-4-[(8-oxa-11,14-diaza-tricyclo[9.2.1.02,7]tetradeca-1(14),2,4,6,12-pentaene-12-carbonyl)-amino]-pentanoic acid], the Ki was 12.6 to 100 nM.

Consider `O=C(N[C@H](Cc1ccc(-c2ccccc2)cc1)C[C@@H](O)C(=O)O)c1cc2n(n1)CCCOc1ccccc1-2` [Example 16-3, (2R,4R)-5-Biphenyl-4-yl-2-hydroxy-4-[(10-oxa-5,6-diaza-tricyclo[9.4.0.02,6]pentadeca-1(15),2,4,11,13-pentaene-4-carbonyl)-amino]-pentanoic acid], for which the Ki was 1.26 to 10 nM.

For `O=C(N[C@H](Cc1ccc(-c2ccccc2)cc1)C[C@@H](O)C(=O)O)c1cc2n(n1)C[C@H](O)COc1ccccc1-2` [Example 16-4, (2R,4R)-5-Biphenyl-4-yl-2-hydroxy-4-[((S)-8-hydroxy-10-oxa-5,6-diaza-tricyclo[9.4.0.02,6]pentadeca-1(15),2,4,11,13-pentaene-4-carbonyl)-amino]-pentanoic acid], the Ki was 1.26 to 10 nM.

Take `O=C(N[C@H](Cc1ccc(-c2ccccc2)cc1)C[C@@H](O)C(=O)O)c1cc2n(n1)C[C@@H](O)COc1ccccc1-2` [Example 16-5, (2R,4R)-5-Biphenyl-4-yl-2-hydroxy-4-[((R)-8-hydroxy-10-oxa-5,6-diaza-tricyclo[9.4.0.02,6]pentadeca-1(15),2,4,11,13-pentaene-4-carbonyl)-amino]-pentanoic acid]: the inhibitory constant (Ki) was 12.6 to 100 nM.

For the compound `O=C(N[C@H](Cc1ccc(-c2ccccc2)cc1)C[C@@H](O)C(=O)O)c1cc2n(n1)COc1ccccc1-2` [Example 16-6, (2R,4R)-5-Biphenyl-4-yl-2-hydroxy-4-[(5-oxa-3,3a-diaza-cyclopenta[a]naphthalene-2-carbonyl)-amino]-pentanoic acid], the Ki is 1.26 to 10 nM.

Regarding `O=C(N[C@H](Cc1ccc(-c2cccc(Cl)c2)cc1)C[C@@H](O)C(=O)O)c1cn(O)nn1` [Example 17-A, (2R,4R)-5-(3′-Chlorobiphenyl-4-yl)-2-hydroxy-4-[(1-hydroxy-1H-[1,2,3]triazole-4-carbonyl)-amino]pentanoic Acid], the Ki is not above 1 nM.

Take `O=C(N[C@H](Cc1ccc(-c2cccc(Cl)c2)cc1)C[C@@H](O)C(=O)O)c1c[nH]nn1` [Example 18-2, (2R,4R)-5-(3′-Chlorobiphenyl-4-yl)-2-hydroxy-4-[(1H-[1,2,3]triazole-4-carbonyl)-amino]-pentanoic acid]: the pKi is listed as not below 9.0.

On to `O=C(N[C@H](Cc1ccc(-c2cccc(Cl)c2)cc1)C[C@@H](O)C(=O)O)c1ccc2nnn(O)c2c1` [Example 18-3, (2R,4R)-5-(3′-Chlorobiphenyl-4-yl)-2-hydroxy-4-[(3-hydroxy-3H-benzotriazole-5-carbonyl)-amino]-pentanoic acid], for which the pKi is on record as not below 9.0.

On to `CC(=O)c1cc(C(=O)N[C@H](Cc2ccc(-c3cccc(Cl)c3)cc2)C[C@@H](O)C(=O)O)on1` [Example 18-7, (2R,4R)-4-[(3-Acetyl-isoxazole-5-carbonyl)-amino]-5-(3′-chlorobiphenyl-4-yl)-2-hydroxy-pentanoic acid], for which the pKi is recorded as not below 9.0.

With `COc1cc(C(=O)N[C@H](Cc2ccc(-c3cccc(Cl)c3)cc2)C[C@@H](O)C(=O)O)on1` [Example 18-8, (2R,4R)-5-(3′-Chlorobiphenyl-4-yl)-2-hydroxy-4-[(3-methoxy-isoxazole-5-carbonyl)-amino]-pentanoic acid], the pKi is not below 9.0.

On to `O=C(N[C@H](Cc1ccc(-c2cccc(Cl)c2)cc1)C[C@@H](O)C(=O)O)c1cc(Cl)no1` [Example 18-9, (2R,4R)-5-(3′-Chloro-biphenyl-4-yl)-4-[(3-chloro-isoxazole-5-carbonyl)-amino]-2-hydroxy-pentanoic acid], for which the negative logarithm of the Ki (pKi) was not below 9.0.

Turning to `CC(C)c1cc(C(=O)N[C@H](Cc2ccc(-c3cccc(Cl)c3)cc2)C[C@@H](O)C(=O)O)on1` [Example 18-10, (2R,4R)-5-(3′-Chloro-biphenyl-4-yl)-2-hydroxy-4-[(3-isopropyl-isoxazole-5-carbonyl)-amino]-pentanoic acid], the negative logarithm of the Ki (pKi) is reported as not below 9.0.

In the case of `CCCc1cc(C(=O)N[C@H](Cc2ccc(-c3cccc(Cl)c3)cc2)C[C@@H](O)C(=O)O)on1` [Example 18-11, (2R,4R)-5-(3′-Chloro-biphenyl-4-yl)-2-hydroxy-4-[(3-propyl-isoxazole-5-carbonyl)-amino]-pentanoic acid], the pKi is on record as not below 9.0.

`CC(C)Cc1cc(C(=O)N[C@H](Cc2ccc(-c3cccc(Cl)c3)cc2)C[C@@H](O)C(=O)O)on1` [Example 18-12, (2R,4R)-5-(3′-Chloro-biphenyl-4-yl)-2-hydroxy-4-[(3-isobutyl-isoxazole-5-carbonyl)-amino]-pentanoic acid]: the pKi was not below 9.0.

Consider `CC(C)(O)c1cc(C(=O)N[C@H](Cc2ccc(-c3cccc(Cl)c3)cc2)C[C@@H](O)C(=O)O)on1` [Example 18-13, (2R,4R)-5-(3′-Chloro-biphenyl-4-yl)-2-hydroxy-4-{[3-(1-hydroxy-1-methyl-ethyl)-isoxazole-5-carbonyl]-amino}-pentanoic acid], for which the pKi is on record as not below 9.0.

With `CC(C)(C)c1cc(C(=O)N[C@H](Cc2ccc(-c3cccc(Cl)c3)cc2)C[C@@H](O)C(=O)O)on1` [Example 18-14, (2R,4R)-4-[(3-tert-Butyl-isoxazole-5-carbonyl)-amino]-5-(3′-chloro-biphenyl-4-yl)-2-hydroxy-pentanoic acid], the pKi is reported as not below 9.0.

As for `O=C(N[C@H](Cc1ccc(-c2cccc(Cl)c2)cc1)C[C@@H](O)C(=O)O)c1cc(-c2ccccc2Cl)on1` [Example 18-15, (2R,4R)-5-(3′-Chlorobiphenyl-4-yl)-4-{[5-(2-chlorophenyl)-isoxazole-3-carbonyl]-amino}-2-hydroxy-pentanoic acid], the pKi was not below 9.0.

Turning to `O=C(N[C@H](Cc1ccc(-c2cccc(Cl)c2)cc1)C[C@@H](O)C(=O)O)c1cc(-c2ccccc2O)on1` [Example 18-16, (2R,4R)-5-(3′-Chlorobiphenyl-4-yl)-2-hydroxy-4-{[5-(2-hydroxyphenyl)-isoxazole-3-carbonyl]-amino}-pentanoic acid], the pKi is not below 9.0.

Regarding `O=C(N[C@H](Cc1ccc(-c2cccc(Cl)c2)cc1)C[C@@H](O)C(=O)O)c1cc(-c2ccccc2O)n[nH]1` [Example 18-17, (2R,4R)-5-(3′-Chlorobiphenyl-4-yl)-2-hydroxy-4-{[5-(2-hydroxy-phenyl)-2H-pyrazole-3-carbonyl]-amino}-pentanoic acid], the pKi is reported as not below 9.0.

For `O=C(N[C@H](Cc1ccc(-c2cccc(Cl)c2)cc1)C[C@@H](O)C(=O)O)c1cc(-c2cnccn2)n[nH]1` [Example 18-19, (2R,4R)-5-(3′-Chlorobiphenyl-4-yl)-2-hydroxy-4-[(5-pyrazin-2-yl-2H-pyrazole-3-carbonyl)-amino]-pentanoic acid], the negative logarithm of the Ki (pKi) was not below 9.0.

`O=C(N[C@H](Cc1ccc(-c2cccc(Cl)c2)cc1)C[C@@H](O)C(=O)O)c1cc(-c2ccccn2)n[nH]1` [Example 18-23, (2R,4R)-5-(3′-Chlorobiphenyl-4-yl)-2-hydroxy-4-[(5-pyridin-2-yl-2H-pyrazole-3-carbonyl)-amino]-pentanoic acid]: the pKi was not below 9.0.

Turning to `O=C(N[C@H](Cc1ccc(-c2cccc(Cl)c2)cc1)C[C@@H](O)C(=O)O)c1cc(NC(=O)c2ccccc2Cl)n[nH]1` [Example 18-27, (2R,4R)-4-{[5-(2-Chlorobenzoylamino)-2H-pyrazole-3-carbonyl]-amino}-5-(3′-chlorobiphenyl-4-yl)-2-hydroxy-pentanoic acid], the pKi is given as not below 9.0.

The term Ki denotes the dissociation constant of the complex between target and ligand, obtained from inhibition or displacement. What is called pKi is the Ki on a negative log10 scale, so that one unit is a factor of ten.
